Experiments:
[1] = test system: HCV genotype 1a Y93H variant with tyrosine 93 changed to histidine in the NS5A protein; assay: microbe, parasite or virus in culture; format: cell-based; conditions: genotype 1a Y93H replicon; test compound titrated with compound N47 fixed at 200 nM versus singly
Method: Combinations can be examined for synergistic activity using a variety of putative NS5A-targeting compounds and a variety of test compounds. […] The test compound can be chosen from compounds exemplified below, which were prepared by methods known in the art, or from others disclosed in the literature.
Similarly, BMS-790052 can be tested singly and in combination with a fixed amount of compound N47 in the HCV replicon cell based assay consisting of the genotype 1a Y93H variant with tyrosine 93 changed to histidine in the NS5A protein.

[2] = test system: HCV genotype 1a L31V variant with leucine 31 changed to valine in the NS5A protein; assay: microbe, parasite or virus in culture; format: cell-based; conditions: genotype 1a L31V replicon; test compound titrated with compound N47 fixed at 200 nM versus singly

Compound | Fold-Synergistic G-1a (Y93H) [1] [fold] | Fold-Synergistic G-1a (L31V) [2] [fold]
COC(=O)N[C@H](C(=O)N1CCC[C@H]1c1nc2cc(-c3ccc4cc(-c5cnc6[nH]c([C@@H]7CCCN7C(=O)[C@@H](NC(=O)OC)C(C)C)nc6c5)ccc4c3)cnc2[nH]1)C(C)C | >10 | >10
COC(=O)N[C@H](C(=O)N1CCC[C@H]1c1ncc(-c2cnc(-c3ncc(-c4cnc([C@@H]5CCCN5C(=O)[C@@H](NC(=O)OC)C(C)C)[nH]4)s3)s2)[nH]1)C(C)C | >100 | >10
COC(=O)N[C@H](C(=O)N1CCC[C@H]1c1nc(-c2cccc(-c3ccc4nc([C@@H]5CCCN5C(=O)[C@@H](NC(=O)OC)C(C)C)[nH]c4c3)c2)c[nH]1)C(C)C | <10 | <10
COC(=O)N[C@@H](C(=O)N1CCC[C@H]1c1ncc(-c2ccc(-c3ccc(-c4cnc([C@@H]5CCCN5C(=O)[C@H]5CCCO5)[nH]4)cc3)cc2)[nH]1)c1ccccc1 | <10 | <10
COC(=O)N[C@H](C(=O)N1C[C@H](C)C[C@H]1c1ncc(-c2ccc(-c3ccc4cc(-c5cnc([C@@H]6C[C@@H](C)CN6C(=O)[C@@H](NC(=O)OC)C(C)C)[nH]5)ccc4c3)cc2)[nH]1)C(C)C | >10 | <10
COC(=O)N[C@H](C(=O)N1CCC[C@H]1c1ncc(-c2ccc(-c3ccc4c(c3)CCc3nc([C@@H]5CCCN5C(=O)[C@@H](NC(=O)OC)C(C)C)[nH]c3-4)cc2)[nH]1)C(C)C | >100 | >100
COC(=O)N[C@H](C(=O)N1CCC[C@H]1c1nc2cc(-c3ccc4cc(-c5ccc6[nH]c([C@@H]7CCCN7C(=O)[C@@H](NC(=O)OC)C(C)C)nc6c5)ccc4c3)ccc2[nH]1)C(C)C | >10 | >10
COC(=O)N[C@H]1CCC[C@H]2CC[C@@H](c3nc(-c4ccc(-c5ccc(-c6c[nH]c([C@@H]7CC[C@@H]8CCC[C@H](NC(=O)OC)C(=O)N87)n6)cc5)cc4)c[nH]3)N2C1=O | <10 | <10
COC(=O)N[C@@H](C)C(=O)N1[C@@H]2CC[C@@H](C2)[C@H]1c1nc(-c2ccc(-c3ccc(-c4cnc([C@@H]5[C@H]6CC[C@H](C6)N5C(=O)[C@H](C)NC(=O)OC)[nH]4)cc3)cc2)c[nH]1 | <10 | >10
COC(=O)N[C@H](C(=O)N1CCC[C@H]1c1nc2cc(-c3ccc4ccc(-c5ccc6nc([C@@H]7CCCN7C(=O)[C@@H](NC(=O)OC)C(C)C)[nH]c6c5)cc4c3)ccc2[nH]1)C(C)C | >10 | >10
COC(=O)N[C@H](C(=O)N1[C@@H]2C[C@@H]2C[C@H]1c1cnc(-c2ccc(C#Cc3ccc(-c4ncc([C@@H]5C[C@H]6C[C@H]6N5C(=O)[C@@H](NC(=O)OC)C(C)C)[nH]4)cc3)cc2)[nH]1)C(C)C | >10 | <10
COC(=O)N[C@H](C(=O)N1[C@@H]2C[C@@H]2C[C@H]1c1nc2cc(Oc3cccc(-c4ccc5[nH]c([C@@H]6C[C@H]7C[C@H]7N6C(=O)[C@@H](NC(=O)OC)C(C)C)nc5c4)c3)ccc2[nH]1)C(C)C | >10 | >10
COC(=O)N[C@H](C(=O)N1CCC[C@H]1c1nc(-c2ccc(C#Cc3ccc(-c4ccc(-c5c[nH]c([C@@H]6CCCN6C(=O)[C@@H](NC(=O)OC)C(C)C)n5)cc4)cc3)cc2)c[nH]1)C(C)C | <10 | <10
COC(=O)N[C@H](C(=O)N1CCC[C@H]1c1ncc(-c2ccc3oc(-c4ccc5nc([C@@H]6CCCN6C(=O)[C@@H](NC(=O)OC)C(C)C)[nH]c5c4)nc3c2)[nH]1)C(C)C | >100 | >100
CN(C)[C@@H](C(=O)N1CCC[C@H]1c1nc(-c2ccc(COc3ccc(-c4c[nH]c([C@@H]5CCCN5C(=O)[C@@H](c5ccccc5)N(C)C)n4)cc3)cc2)c[nH]1)c1ccccc1 | <10 | <10
COC(=O)N[C@H](C(=O)N1[C@@H]2C[C@@H]2C[C@H]1c1nc2cc(-c3ccc(Oc4cccc5[nH]c([C@@H]6C[C@H]7C[C@H]7N6C(=O)[C@@H](NC(=O)OC)C(C)C)nc45)cc3)ccc2[nH]1)C(C)C | >100 | >10
CC[C@H]1CC[C@@H](c2ncc(-c3ccc(-c4ccc(-c5cnc([C@@H]6CC[C@H](CC)N6C(=O)[C@@H](NC(=O)OC)C(C)C)[nH]5)cc4)cc3)[nH]2)N1C(=O)[C@@H](NC(=O)OC)C(C)C | >100 | >100

Compound | Fold-Synergistic G-1a (Y93H) [1] [fold] | Fold-Synergistic G-1a (L31V) [2] [fold]
COC(=O)N[C@H](C(=O)N1CCC[C@H]1c1nc2cc(C#Cc3ccc4[nH]c([C@@H]5CCCN5C(=O)[C@@H](NC(=O)OC)C(C)C)nc4c3)ccc2[nH]1)C(C)C | >10 | <10
COC(=O)N[C@H](C(=O)N1[C@H](c2ncc(-c3ccc(-c4ccc(-c5cnc([C@@H]6C[C@@H](C)[C@H](C)N6C(=O)[C@@H](NC(=O)OC)C(C)C)[nH]5)cc4)cc3)[nH]2)C[C@@H](C)[C@@H]1C)C(C)C | >100 | >100
COC(=O)N[C@H](C(=O)N1CCC[C@H]1c1nc2cc(-c3ccc4c(ccc5[nH]c([C@@H]6CCCN6C(=O)[C@@H](NC(=O)OC)C(C)C)nc54)c3)ccc2[nH]1)C(C)C | >100 | >10
CN(C)[C@@H](C(=O)N1CCC[C@H]1c1ncc(-c2ccc(-c3ccc(-c4ccc(-c5cnc([C@@H]6CCCN6C(=O)[C@@H](c6ccccc6)N(C)C)[nH]5)cc4)cc3)cc2)[nH]1)c1ccccc1 | <10 | <10
COC(=O)N[C@H](C(=O)N1CCOC[C@H]1c1ncc(-c2ccc(-c3ccc(-c4cnc([C@@H]5COCCN5C(=O)[C@@H](NC(=O)OC)C(C)C)[nH]4)cc3)cc2)[nH]1)C(C)C | >100 | >100
COC(=O)N[C@H](C(=O)N1[C@@H]2C[C@@H]2C[C@H]1c1ncc(-c2ccc(C#Cc3ccc(-c4cnc([C@@H]5C[C@H]6C[C@H]6N5C(=O)[C@@H](NC(=O)OC)C(C)C)[nH]4)cc3C)c(C)c2)[nH]1)C(C)C | <10 | <10
COc1cccc2c(C(=O)N3CCC[C@H]3C(=O)Nc3ccc(-c4ncc(-c5ccc6nc([C@@H]7CCCN7C(=O)c7nc(Cl)cc8c(OC)cccc78)[nH]c6c5)o4)cc3)nc(Cl)cc12 | <10 | <10
COC(=O)N[C@H](C(=O)N1[C@@H](C)CC[C@H]1c1ncc(-c2ccc(-c3ccc4cc(-c5cnc([C@@H]6CC[C@H](C)N6C(=O)[C@@H](NC(=O)OC)C(C)C)[nH]5)ccc4c3)cc2)[nH]1)C(C)C | >100 | <10
COC(=O)N[C@H](C(=O)N1[C@@H]2C[C@@H]2C[C@H]1c1nc(-c2ccc3cc(-c4ccc5cc(-c6c[nH]c([C@@H]7C[C@H]8C[C@H]8N7C(=O)[C@@H](NC(=O)OC)C(C)C)n6)ccc5c4)ccc3c2)c[nH]1)C(C)C | <10 | <10
O=C1C(c2ccccc2)N(c2ccc(-c3cnc(-c4ccc(N5C(=O)C6CCCN6C(=O)C5c5ccccc5)cc4)o3)cc2)C(=O)C2CCCN12 (centres unmarked) | <10 | <10
COC(=O)N[C@H](C(=O)N1[C@@H]2C[C@@H]2C[C@H]1c1ncc(-c2ccc(C#Cc3ccc(-c4cnc([C@@H]5C[C@H]6C[C@H]6N5C(=O)[C@@H](NC(=O)OC)C(C)C)[nH]4)cc3)cc2)[nH]1)C(C)C | >10 | <10
COC(=O)N[C@@H](C(=O)N1CCC[C@H]1c1nc2cc(-c3ccc(-c4ccc5c(ccc6[nH]c([C@@H]7CCCN7C(=O)[C@H](NC(=O)OC)c7ccccc7)nc65)c4)cc3)ccc2[nH]1)c1ccccc1 | <10 | <10
COC(=O)N[C@H](C(=O)N1[C@@H]2C[C@@H]2C[C@H]1c1ncc(-c2ccc(-c3ccc(-c4cnc([C@@H]5C[C@H]6C[C@H]6N5C(=O)[C@@H](NC(=O)OC)C(C)C)[nH]4)cc3)cc2)[nH]1)C(C)C | >100 | >100
COC(=O)N[C@@H](C(=O)N1CCC[C@H]1c1ncc(-c2nc3cc4sc(-c5cnc([C@@H]6CCCN6C(=O)[C@H](NC(=O)OC)c6ccccc6)[nH]5)nc4cc3s2)[nH]1)c1ccccc1 | >100 | <10
C=C1C[C@@H](c2nc(-c3ccc(-c4ccc5cc(-c6c[nH]c([C@@H]7CC(=C)CN7C(=O)[C@@H](NC(=O)OC)C(C)C)n6)ccc5c4)cc3)c[nH]2)N(C(=O)[C@@H](NC(=O)OC)C(C)C)C1 | >100 | <10
COC(=O)N[C@@H](C(=O)N1CCC[C@H]1c1nc(-c2ccc(Oc3cccc(-c4cnc([C@@H]5CCCN5C(=O)[C@H](NC(=O)OC)c5ccccc5)[nH]4)c3)cc2)c[nH]1)c1ccccc1 | <10 | <10
COC(=O)N[C@H](C(=O)N1CCC[C@H]1c1nc2cc(C#Cc3ccc(-c4[nH]cnc4[C@@H]4CCCN4C(=O)[C@@H](NC(=O)OC)C(C)C)cc3)ccc2[nH]1)C(C)C | >10 | <10

— patent publication US20160158200A1, “Combinations of Hepatitis C Virus Inhibitors” (priority 2013, published 2016)
